Laboratory results reported in US4871774A, “Medical treatment” (The Boots Company PLC, priority 1987, dated 1989).

Tests used:
[1] = system: dopamine reuptake; unilateral nigrostriatal lesioned rats; test: Ipsilateral circling behaviour of unilateral nigrostriatal (6-OHDA) lesioned rats; assay type: in vivo, rat (CD); details: 30 mg/kg oral
Source text: The two tracts of the nigrostriatal dopamine system are independent and are located on either side of the midline of the brain. When one tract is destroyed using the specific neurotoxin, 6-hydroxydopamine (6-OHDA), rats will display characteristic circling behaviour after injection of dopaminergic drugs. The direction of rotation, however, is dependent on the stimulus employed. Drugs which inhibit dopamine reuptake can only function on the unlesioned side of the brain and induce circling towards the lesion site (known as ipsilateral circling.)
Male CD rats (250-300 g: Charles River) were anaesthetised with `Equithesin` type anaesthetic (3.2 ml/kg i.p.) and secured in a stereotaxic frame (David Kopf Small Animal Stereotaxic Instrument DKI 900). After shaving the area, a saggital incision of 1.5-2 cm was made and skin flaps dissected from the skull. A small hole was made in the skull, using a No. 6 dental burr, to allow the tip of a 30 s.w.g. stainless steel cannula to be inserted to the left substantia nigra. This was located by using the following co-ordinates, using skull landmark bregma as the zero reference point; rostral-caudal -2.8; medial-lateral +2.0; dorsal-ventral -8.0 from the surface of the dura, all co-ordinates measured in millimetres. This system of co-ordinates is a modification of the de Groot system as described by Pellegrino et al (A stereotaxic atlas of the rat brain, 2nd Edition, Plenum Press 1979). 6-Hydroxydopamine HBr (2 μg/μl, as base: Sigma Chemical Co.) was injected into the left substantia nigra at 1 μl/min; a total of 8 μg was administered over a period of 4 minutes using an infusion pump (Braun `Perfusor` ED2). After removal of the cannula, the skin flaps were joined with a single everted suture and the animal allowed to recover.
After 21 days, the circling behaviour of the rats was examined. They were placed, individually, in circular plastic arenas (30 cm diameter×12 cm high) for 1 hour, with no access to food or water during this period. […] One `turn` consisted of rotation through 360° in either direction. As rats were always lesioned on the left side of the brain, anticlockwise turns were ipsilateral.
Control values were determined for all rats by observing their spontaneous circling behaviour in the arenas without prior dosing. The mean turns per minute was always less than 1.
The rats were challenged with an intraperitoneal dose of methamphetamine (2 mg/kg) and immediately placed in the arenas. In these experiments circling behaviour was monitored during two periods, 0-1 h and 4-5 h after dosing. Rats giving a mean of more than 5 ipsilateral turns per minute during the first hour in response to methamphetamine were used in subsequent tests. Following selection, the rats were used in groups of 5 or more rats to test the drug under investigation.

[2] = system: brain DOPAC (turnover of dopamine); test: Turnover of dopamine in rodent brains by determination of DOPAC concentrations (mouse); assay type: in vivo, mouse (CD1); details: whole brain, 10 mg/kg oral, 2 h
Source text: (7) Measurement of the turnover of dopamine in rodent brains by determination of DOPAC concentrations following drug administration
Inhibition of dopamine reuptake in the brain reduces the rate at which dopamine is synthesised and metabolised (the turnover rate). This can be assessed by measuring the amount of the dopamine metabolite DOPAC (dihydroxyphenylacetic acid) which accumulates in the brains of rats and mice. In addition, the administration of probenecid blocks active transport of DOPAC out of the brain. The subsequent rise in brain DOPAC concentrations is attenuated by drugs which inhibit dopamine reuptake.
One group of animals was killed two hours later. […] Aliquots (50 μl) of the clear supernatants were then injected automatically into the chromatographic system for the separation and quantification of DOPAC.
High pressure liquid chromatography (HPLC) combined with electrochemical detection (ECD) was employed to assay DOPAC. […] The controller was set at 20 nA full-scale and output from the cell recorded using a Spectra-Physics 4100 automatic computing integrator. Quantification of DOPAC was effected by the computing integrator after calibration of the HPLC-ECD system using DOPAC of known concentration and including isoprenaline as an internal standard. […]

## CC(C)CC(N(C)C)C1(c2ccc(Cl)cc2)CCC1.Cl.O (centres unmarked) [N,N-dimethyl-1-[1-(4-chlorophenyl)cyclobutyl]-3-methylbutylamine hydrochloride monohydrate]
[1]
  duration of action as an inhibitor of dopamine reuptake (in words): long lasting action as an inhibitor of dopamine reuptake
[1]; 0-1 hrs after dosing
  ipsilateral turns/min (Mean ± SEM): 3.0 ± 0.6 turns/min
[1]; 4-5 hrs after dosing
  ipsilateral turns/min (Mean ± SEM): 6.7 ± 1.4 turns/min
[1]; 8-9 hrs after dosing
  ipsilateral turns/min (Mean ± SEM): 8.6 ± 1.8 turns/min
[1]; 24-25 hrs after dosing
  ipsilateral turns/min (Mean ± SEM): 6.2 ± 1.7 turns/min
[1]; 48-49 hrs after dosing
  ipsilateral turns/min (Mean ± SEM): 1.7 ± 0.5 turns/min
[2]; A (drug alone), control 74 ± 5
  Brain DOPAC Levels: 54 ± 3 ng/g wet wt
[2]; B (with probenecid 200 mg/kg i.p.), control 116 ± 8
  Brain DOPAC Levels: 54 ± 3 ng/g wet wt
